# From PMC5740381 (Antimicrobial Agents and Chemotherapy, 2017)
# Read-outs that look alike come from different tables or passages of the source.
# What was measured:
# Assay type in all cases: cell-based, Hepatitis C virus
# [1] = system: HCV subgenomic stable replicon GT4a; experiment: Stable HCV replicon luciferase assay in Huh-7 cells; conditions: read-out: Mean EC50 ± SD
# Description: (§1) . Five of these nine cell lines have been described previously, including those transfected with genotypes 1a H77, 1b Con1, 3a, 4a, and 6a ([28]). The other four cell lines were established by transfecting cells with a nonchimeric genotype 2a JFH-1 replicon (GenBank accession number AB047639), two genotype 2a JFH-1 chimeric replicons containing either a genotype 2b NS3 protease domain (N-terminal 251 amino acids) or a sequence encoding full-length NS3 through the first 39 amino acids of NS5B from genotype 5a (strain SA13), and one chimeric replicon with a genotype 1b Con1 backbone containing full-length NS3 and NS4A sequences from genotype 6e. The genotype 2b and 6e NS3 sequences were each synthetically constructed based on a consensus sequence derived from the alignment of 15 genotype 2b and 4 genotype 6e sequences, respectively. All replicon constructs were bicistronic subgenomic replicons similar to those described by Bartenschlager and coworkers, and the replicon cell lines were generated by introducing these constructs into cells of an Huh-7 human hepatoma-derived cell line ([50]). The inhibitory effect of the PIs on HCV replication in replicon cells was determined in Dulbecco's modified Eagle medium containing 5% fetal bovine serum with or without 40% human plasma (Bioreclamation, Westbury, NY). The EC50s were determined using nonlinear regression curve fitting as described previously ([33]).
# [2] = system: HCV subgenomic stable replicon GT6a; experiment: as above; conditions: read-out: Mean EC50 ± SD
# Description: as §1
# [3] = system: HCV subgenomic stable replicon GT3a; experiment: microbe, parasite or virus in culture; conditions: read-out: Mean EC50 ± SD
# Description: (§2) Five of these nine cell lines have been described previously, including those transfected with genotypes 1a H77, 1b Con1, 3a, 4a, and 6a ([28]). […] The genotype 2b and 6e NS3 sequences were each synthetically constructed based on a consensus sequence derived from the alignment of 15 genotype 2b and 4 genotype 6e sequences, respectively. All replicon constructs were bicistronic subgenomic replicons similar to those described by Bartenschlager and coworkers, and the replicon cell lines were generated by introducing these constructs into cells of an Huh-7 human hepatoma-derived cell line ([50]). The inhibitory effect of the PIs on HCV replication in replicon cells was determined in Dulbecco's modified Eagle medium containing 5% fetal bovine serum with or without 40% human plasma (Bioreclamation, Westbury, NY). The EC50s were determined using nonlinear regression curve fitting as described previously ([33]).
# HCV genotype 2b replicon = experiment: Transient replicon assay with engineered substitutions
# Method: (§3) Mutagenesis was performed using a Change-IT multiple-mutation site-directed mutagenesis kit (USB, Cleveland, OH) or by cloning a synthesized DNA fragment encoding the amino acid substitution(s). The genotype 1a and 1b replicon shuttle vectors used for the introduction of the substitutions of interest in the NS3, NS5A, or NS5B gene for transient-transfection assays have been described previously ([28], [33]). The replicon shuttle vectors used for the introduction of substitutions in NS3 genes from other genotypes were similar to the stable replicon cell line constructs described above, except for the absence of the neo gene. After mutagenesis, the plasmids were linearized and RNA was transcribed and then used to transfect Huh-7 cells. Inhibition of HCV replication by the HCV inhibitors was measured by luciferase assay, as described above. Replication efficiency was calculated as a percentage of wild-type replication, as described previously ([28]).
# HCV genotype 3a replicon = experiment: as above
# Method: as §3
# HCV genotype 4a replicon = experiment: as above
# Method: as §3
# HCV genotype 4d replicon = experiment: as above
# Method: as §3
# HCV genotype 6a replicon = experiment: as above
# Method: as §3
# [4] = system: HCV subgenomic stable replicon GT6e; experiment: microbe, parasite or virus in culture; conditions: 0% human plasma, read-out: Mean EC50 ± SD
# Description: as §2
# HCV genotype 1a replicon = experiment: Transient replicon assay with engineered substitutions; conditions: read-out: Mean EC50 ± SD
# Method: as §3
# HCV genotype 1b replicon = experiment: as above; conditions: read-out: Mean EC50 ± SD
# Method: as §3
# HCV genotype 2a replicon = experiment: as above; conditions: read-out: Mean EC50 ± SD
# Method: as §3
# HCV genotype 5a replicon = experiment: as above; conditions: 5a wild type, transient transfection; read-out: Mean EC50 ± SD
# Method: as §3
# [5] = Hepatitis C virus, Huh-7, 0% human plasma
smiles,measurement,setting,value
"CC(C)(C)[C@@H]1NC(=O)O[C@@H]2CCC[C@H]2OC/C=C/C(F)(F)c2nc3ccccc3nc2O[C@@H]2C[C@@H](C(=O)N[C@]3(C(=O)NS(=O)(=O)C4(C)CC4)C[C@H]3C(F)F)N(C2)C1=O [Glecaprevir, (3aR,7S,10S,12R,21E,24aR)-7-tert-butyl-N-[(1R,2R)-2-(difluoromethyl)-1-{[(1-methylcyclopropyl)sulfonyl]carbamoyl}cyclopropyl]-20,20-difluoro-5,8-dioxo-2,3,3a,5,6,7,8,11,12,20,23,24a-dodecahydro-1H,10H-9,12-methanocyclopenta[18,19][1,10,17,3,6]trioxadiazacyclononadecino[11,12-b]quinoxaline-10-carboxamide]",EC50,[1]; [5],2.8 ± 0.41 nM
same,EC50,[2]; [5],0.86 ± 0.11 nM
same,EC50,[3]; [5],1.9 ± 0.62 nM
same,EC50,"HCV genotype 2b replicon; Hepatitis C virus, read-out: Mean EC50 ± SD, 2b NS3 A156T",460 ± 172 nM
same,EC50,"HCV genotype 2b replicon; Hepatitis C virus, read-out: Mean EC50 ± SD, 2b NS3 A156V",4510 nM
same,EC50,"HCV genotype 2b replicon; Hepatitis C virus, read-out: Mean EC50 ± SD, 2b NS3 D168A",3.9 ± 1 nM
same,EC50,"HCV genotype 2b replicon; Hepatitis C virus, read-out: Mean EC50 ± SD, 2b NS3 D168E",6.6 ± 1.8 nM
same,EC50,"HCV genotype 2b replicon; Hepatitis C virus, read-out: Mean EC50 ± SD, 2b NS3 D168V",9.1 ± 1.2 nM
same,EC50,"HCV genotype 2b replicon; Hepatitis C virus, read-out: Mean EC50 ± SD, 2b wild type, transient transfection",3.1 nM
same,EC50,"HCV genotype 3a replicon; Hepatitis C virus, read-out: Mean EC50 ± SD, 3a NS3 A156G",909 ± 349 nM
same,EC50,"HCV genotype 3a replicon; Hepatitis C virus, read-out: Mean EC50 ± SD, 3a NS3 Q168R",30 ± 10 nM
same,EC50,"HCV genotype 3a replicon; Hepatitis C virus, read-out: Mean EC50 ± SD, 3a wild type, transient transfection",0.55 nM
same,EC50,"HCV genotype 4a replicon; Hepatitis C virus, read-out: Mean EC50 ± SD, 4a NS3 A156T",962 ± 374 nM
same,EC50,"HCV genotype 4a replicon; Hepatitis C virus, read-out: Mean EC50 ± SD, 4a NS3 A156V",2080 nM
same,EC50,"HCV genotype 4a replicon; Hepatitis C virus, read-out: Mean EC50 ± SD, 4a NS3 D168H",15 ± 6.1 nM
same,EC50,"HCV genotype 4a replicon; Hepatitis C virus, read-out: Mean EC50 ± SD, 4a NS3 D168V",6.5 ± 3 nM
same,EC50,"HCV genotype 4a replicon; Hepatitis C virus, read-out: Mean EC50 ± SD, 4a NS3 R155C",1.7 ± 0.47 nM
same,EC50,"HCV genotype 4a replicon; Hepatitis C virus, read-out: Mean EC50 ± SD, 4a wild type, transient transfection",0.67 nM
same,EC50,"HCV genotype 4d replicon; Hepatitis C virus, 96 h, read-out: Mean EC50 ± SD, 4d wild type, transient transfection",0.15 ± 0.04 nM
same,EC50,"HCV genotype 6a replicon; Hepatitis C virus, read-out: Mean EC50 ± SD, 6a NS3 D168A",12 ± 5.8 nM
same,EC50,"HCV genotype 6a replicon; Hepatitis C virus, read-out: Mean EC50 ± SD, 6a NS3 D168H",22 ± 5.7 nM
same,EC50,"HCV genotype 6a replicon; Hepatitis C virus, read-out: Mean EC50 ± SD, 6a NS3 D168V",5.8 ± 2.2 nM
same,EC50,"HCV genotype 6a replicon; Hepatitis C virus, read-out: Mean EC50 ± SD, 6a wild type, transient transfection",0.15 nM
C=C[C@@H]1C[C@]1(NC(=O)[C@@H]1C[C@@H]2CN1C(=O)[C@H](C(C)(C)C)NC(=O)O[C@@H]1C[C@H]1CCCCCc1nc3ccc(OC)cc3nc1O2)C(=O)NS(=O)(=O)C1CC1 [Grazoprevir],EC50,[1]; 0% human plasma,1.2 ± 0.31 nM
same,EC50,[2]; 0% human plasma,0.89 ± 0.32 nM
same,EC50,[3]; 0% human plasma,83 ± 18 nM
same,EC50,[4],0.25 ± 0.01 nM
same,EC50,HCV genotype 1a replicon; 1a NS3 A156T,92 ± 6 nM
same,EC50,HCV genotype 1a replicon; 1a NS3 D168E,4.6 ± 0.66 nM
same,EC50,HCV genotype 1a replicon; 1a NS3 D168V,30 ± 13 nM
same,EC50,HCV genotype 1a replicon; 1a NS3 F43L,0.19 ± 0.05 nM
same,EC50,HCV genotype 1a replicon; 1a NS3 Q80K,0.25 ± 0.09 nM
same,EC50,HCV genotype 1a replicon; 1a NS3 R155K,0.59 ± 0.19 nM
same,EC50,HCV genotype 1a replicon; 1a NS3 V36M,0.27 ± 0.06 nM
same,EC50,HCV genotype 1a replicon; 1a NS3 V55I,0.1 ± 0.02 nM
same,EC50,HCV genotype 1a replicon; 1a NS3 Y56H,2.2 ± 0.73 nM
same,EC50,"HCV genotype 1a replicon; 1a wild type, transient transfection",0.14 ± 0.06 nM
same,EC50,HCV genotype 1b replicon; 1b NS3 A156T,39 ± 4.3 nM
same,EC50,HCV genotype 1b replicon; 1b NS3 A156V,68 ± 8.2 nM
same,EC50,HCV genotype 1b replicon; 1b NS3 D168A,8.5 ± 0.37 nM
same,EC50,HCV genotype 1b replicon; 1b NS3 D168E,0.78 ± 0.05 nM
same,EC50,HCV genotype 1b replicon; 1b NS3 D168V,4.1 ± 0.11 nM
same,EC50,"HCV genotype 1b replicon; 1b wild type, transient transfection",0.19 ± 0.05 nM
same,EC50,HCV genotype 2a replicon; 2a NS3 A156T,1150 nM
same,EC50,HCV genotype 2a replicon; 2a NS3 A156V,1960 nM
same,EC50,HCV genotype 2a replicon; 2a NS3 D168A,139 ± 9.4 nM
same,EC50,HCV genotype 2a replicon; 2a NS3 D168E,62 ± 10 nM
same,EC50,HCV genotype 2a replicon; 2a NS3 D168V,24 ± 0.94 nM
same,EC50,"HCV genotype 2a replicon; 2a wild type, transient transfection",10.5 ± 1.4 nM
same,EC50,"HCV genotype 2b replicon; 2b NS3 A156T, read-out: Mean EC50 ± SD",1560 nM
same,EC50,"HCV genotype 2b replicon; 2b NS3 A156V, read-out: Mean EC50 ± SD",2890 nM
same,EC50,"HCV genotype 2b replicon; 2b NS3 D168A, read-out: Mean EC50 ± SD",347 ± 113 nM
same,EC50,"HCV genotype 2b replicon; 2b NS3 D168E, read-out: Mean EC50 ± SD",35 ± 6 nM
same,EC50,"HCV genotype 2b replicon; 2b NS3 D168V, read-out: Mean EC50 ± SD",88 ± 19 nM
same,EC50,"HCV genotype 2b replicon; 2b wild type, transient transfection, read-out: Mean EC50 ± SD",6.1 ± 1.3 nM
same,EC50,"HCV genotype 3a replicon; 3a NS3 A156G, read-out: Mean EC50 ± SD",614 ± 148 nM
same,EC50,"HCV genotype 3a replicon; 3a NS3 Q168R, read-out: Mean EC50 ± SD",165 ± 46 nM
same,EC50,"HCV genotype 3a replicon; 3a wild type, transient transfection, read-out: Mean EC50 ± SD",47 ± 14 nM
same,EC50,"HCV genotype 4a replicon; 4a NS3 A156T, read-out: Mean EC50 ± SD",296 ± 22 nM
same,EC50,"HCV genotype 4a replicon; 4a NS3 A156V, read-out: Mean EC50 ± SD",169 ± 27 nM
same,EC50,"HCV genotype 4a replicon; 4a NS3 D168H, read-out: Mean EC50 ± SD",25 ± 6.3 nM
same,EC50,"HCV genotype 4a replicon; 4a NS3 D168V, read-out: Mean EC50 ± SD",13 ± 1.1 nM
same,EC50,"HCV genotype 4a replicon; 4a NS3 R155C, read-out: Mean EC50 ± SD",2 ± 0.27 nM
same,EC50,"HCV genotype 4a replicon; 4a wild type, transient transfection, read-out: Mean EC50 ± SD",0.28 ± 0.04 nM
same,EC50,"HCV genotype 4d replicon; 4d NS3 D168V, read-out: Mean EC50 ± SD",2.5 ± 0.08 nM
same,EC50,"HCV genotype 4d replicon; 4d wild type, transient transfection, read-out: Mean EC50 ± SD",0.18 ± 0.01 nM
same,EC50,HCV genotype 5a replicon,0.06 ± 0.02 nM
same,EC50,"HCV genotype 6a replicon; 6a NS3 D168A, read-out: Mean EC50 ± SD",103 ± 34 nM
same,EC50,"HCV genotype 6a replicon; 6a NS3 D168H, read-out: Mean EC50 ± SD",45 ± 4.1 nM
same,EC50,"HCV genotype 6a replicon; 6a NS3 D168V, read-out: Mean EC50 ± SD",24 ± 1.2 nM
same,EC50,"HCV genotype 6a replicon; 6a wild type, transient transfection, read-out: Mean EC50 ± SD",0.1 ± 0.02 nM
